Results reported in US11591298B2, “Bisaminoquinoline compounds, pharmaceutical compositions prepared therefrom and their use” (THE TRUSTEES OF THE UNIVERSITY OF PENNSYLVANIA, priority 2011, dated 2023).
Where two headings read alike, the source gives them in different places.

Legend:
LN229 GFP-LC3 cells [1] = assay: Bafilomycin clamp experiment (LC3 immunoblotting); format: cell-based, human; details: 24 hours; HCQ 10 μM, Lys01 10 μM, rapamycin
Protocol: FIGS. 4A, 4B, 4C, 4D. Autophagy inhibition and cytotoxicity of Lys01 compared to HCQ (4A) Representative images of LN229 GFP-LC3 cells treated as indicated for 4 hours. White arrows: small puncta; red arrows: dense puncta. Graphs show mean+/−SEM puncta/cell. (4B) Representative electron micrographs of LN229-GFP-LC3 cells treated (4 hours) with DMSO, HCQ 10 μM, or Lys01 10 μM Arrows: Autophagic vesicles. (4C) LC3 immunoblotting of LN229 cells treated for 24 hours an indicated; calculated ratio of LC3II/LC3I ratios for bafilomycin versus control co-treatment. Above the dashed line indicates an autophagy inducer or control, below the dashed line indicated an autophagy inhibitor. (4D) MTT assay (72 hours) for 4 cell lines. Red: Lys01, Blue: Lys02, Purple: Lys03 Green: Lys04 Orange: HCQ. Values presented are means+/−SEM with 5 replicates per treatment.
To further characterize the effects of Lys01 on autophagy, LN229 GFP-LC3 cells were treated with Lys01 or HCQ (FIG. 4A). […] Electron micrographs of LN229 GFP-LC3 cells treated with DMSO, HCQ, or Lys01 further characterized the significant morphological difference in the size and number of vesicles produced by blockade of autophagy with these agents (FIG. 4B). Thus, Lys01 produces morphological changes more pronounced than HCQ, a known lysosomal inhibitor, at 10-fold lower concentrations. […]

[2] = test system: HT-29 colon cancer xenografts
Protocol: (§1) FIGS. 6A, 6B, 6C, 6D, 6E, 6F, 6G. […] (6A) Representative electron micrographs (12,000×) of c8161 xenograft tumors harvested after 2 days of daily i.p. treatment with PBS, HCQ 60 mg/kg, or Lys05 76 mg/kg. Arrows: autophagic vesicles; scale bar 2 μm (6B) Quantification of mean+SEM number of autophagic vesicles/cell from two representative tumors from each treatment group. (C-D) 1205Lu xenografts were treated with PBS (blue), HCQ 60 mg/kg ip (green), or Lys05 76 mg/kg (red) i.p. every 3/5 days. (6C) Tumor volumes over 14 days (6D) Daily tumor growth rate. (E-G) HT29 xenografts were generated in the flanks of nude mice and treated with PBS, Lys05 10 mg/kg/ip daily, Lys05 40 mg/kg ip daily, or Lys05 80 mg/kg ip every 3/5 days. (6E) Average daily tumor growth rate. (6F) Tumor volumes over 14 days.
(§2) FIGS. 7A, 7B, 7C. […] (7A) Immunoblotting against LC3 in lysates from individual c8161 tumors treated as indicated with daily i.p. injections for 48 hours. […] Arrows: Autophagic vesicle (white); apoptotic cell (orange) (7C) Immunoblotting against LC3 in HT29 xenografts treated with daily dosing (10, 40 mg/kg) or 3/5 days (80 mg/kg) for 14 days.

[3] = format: cell-based; details: within 30 minutes
cathepsin D [4] = details: 1205Lu cells; within 24 hours; compared to HCQ- or PBS-treated cells
c8161 xenografts = test system: c8161 xenografts
Protocol: as §1, §2
(§3) Lys05, the trihydrochloride salt of Lys01 was synthesized to enhance aqueous solubility and to enable in vivo studies. […] To investigate the safety of Lys05 and its in vivo effects on autophagy, c8161 xenografts matched for tumor size were treated with intraperitoneal (i.p.) daily PBS, or equimolar doses of HCQ or Lys05 (HCQ 60 mg/kg (138 nmoles/g), Lys05 76 mg/kg (138 nmoles/g)) for 48 hours. […] After 48 hours of treatment mice were euthanized, and tumors were processed for electron microscopy (EM).

acid phosphatase [5] = details: 1205Lu xenograft tumors; after 14 days of treatment
mice [6] = test system: mice
c8161 cells [7] = assay: Immunoblotting against LC3 and p62 in c8161 cells; format: cell-based; details: Lys01 versus Lys05
Protocol: (§4) FIGS. 5A, 5B. […] (5A) Immunoblotting against LC3 and p62 in c8161 cells treated as indicated (5B) MTT assay in c8161 cells at 72 hours. HCQ: Hydroxychloroquine.
as §3

cathepsin D [8] = details: 1205Lu xenograft tumors; 14 days
1205Lu xenografts = assay: 1205Lu xenograft antitumor activity (14 days); format: in vivo, nude mice
c8161 cells [9] = assay: MTT assay in c8161 cells at 72 hours; format: cell-based; details: Lys01 versus Lys05
Protocol: as §4, §3

mice [10] = test system: mice; remark: listed apart in the source
Protocol: as §3

[11] = Acridine orange staining of acidic vesicles; format: cell-based; details: 24 hours
mice [12] = details: mouse, in vivo, ip, 76 mg/kg
Protocol: For chronic treatment experiments the 1205Lu melanoma model was chosen over the c8161 xenograft model because c8161 xenografts tend to spontaneously ulcerate confounding tumor measurements and safety analysis. Ten mice bearing 1205Lu xenografts were matched for tumor volume per cohort were assigned to either PBS, HCQ 60 mg/kg i.p. or Lys05 76 mg/kg i.p. (equimolar dosing) dosed for 3 days of daily treatment with 2 days off treatment (3/5 days) for all 3 treatment groups, to allow for symptom recovery and to avoid excess toxicity.
Paneth cell dysfunction, including reduced size and number of eosinophilic lysozyme-containing granules, has previously been described as the pathognomonic sign of autophagy deficiency in mice and a subset of Crohn's disease patients that have a genetic deficiency in the essential autophagy gene ATG16L1 (31).

acid phosphatase [13] = details: 1205Lu cells; 10 μM; within 24 hours
1205Lu = assay: Cell death after 24 hours in 1205Lu cells; format: cell-based; details: 10 μM
[14] = test system: LN229 (human glioblastoma); assay: Cell death of cultured LN229 cells; format: cell-based; details: concentrations of 10 μM or higher, between 4-24 hours
[15] = test system: LN229 (glioma), 1205Lu (melanoma), HT-29 (colon) and c8161 (melanoma) cells; assay: MTT assay (72 hours) in 4 cell lines; format: cell-based; details: range over the 4 cell lines tested
Protocol: FIGS. 4A, 4B, 4C, 4D. […] White arrows: small puncta; red arrows: dense puncta. Graphs show mean+/−SEM puncta/cell. (4B) Representative electron micrographs of LN229-GFP-LC3 cells treated (4 hours) with DMSO, HCQ 10 μM, or Lys01 10 μM Arrows: Autophagic vesicles. (4C) LC3 immunoblotting of LN229 cells treated for 24 hours an indicated; calculated ratio of LC3II/LC3I ratios for bafilomycin versus control co-treatment. […] (4D) MTT assay (72 hours) for 4 cell lines. Red: Lys01, Blue: Lys02, Purple: Lys03 Green: Lys04 Orange: HCQ. Values presented are means+/−SEM with 5 replicates per treatment.
The MTT assay was used to assess viable cells at 72 hours.

HCC827 = assay: Cell death after 24 hours in HCC827 cells; format: cell-based; details: 10 μM
LN229 GFP-LC3 cells [16] = assay: GFP-LC3 puncta imaging in LN229 GFP-LC3 cells; format: cell-based, human; details: for GFP-LC3 punctate fluorescence: within 4 hours
P. falciparum = P. falciparum strains grown in vitro in human RBC (Table 2, FIG. 17); format: cell-based; details: some CQ-resistant cell lines; values only in FIG. 17
From the text: FIG. 17, Table 2 provides IC50 (M) values of a number of compounds according to the present invention in P. falciparum.
There is a similar activity profile for anticancer activity of Lys01 derivatives and malaria cytotoxicity.

[17] = test system: LC3II/LC3I ratio in LN229 cells; assay: LC3 immunoblotting (LC3II/LC3I ratio) in LN229 cells; format: cell-based, human; details: concentration of 10 μM, 4 hours
Protocol: FIG. 3. Effects of Lys01-Lys04 on LC3 immunoblotting Immunoblotting and quantification of LC3II/LC3I ratio in lysates from LN229 cells treated for 4 hours. The graphs show (mean+/−SD) LC3II/LC3I ratios of each treatment normalized to the LC3II/LC3I ratio of control treated cells for each experiment.
LN229 (human glioblastoma) were treated with Lys01 and derivatives Lys02, Lys03, Lys04, HCQ and CQ. […] LC3 is a ubiquitin-like protein which exists as an unconjugated form (LC3I) or conjugated to AV membranes (LC3II) (25). The ratio of LC3II/LC3I reflects the accumulation of AV in cells, and therefore effective autophagy inhibition.

Question: For `CN(CCNc1ccnc2cc(Cl)ccc12)CCNc1ccnc2cc(Cl)ccc12.Cl.Cl.Cl` [Lys05], which “LC3II/LC3I ratio in bafilomycin treated cells compared to control cells” value (LN229 GFP-LC3 cells [1]) is on record?
Answer: did not demonstrate an increase

Question: What about the excised tumor weights ([2]; 10 mg/kg daily dosing, end of the experiment) of the same molecule?
Answer: significant antitumor activity

Question: What about the “average daily tumor growth rate” value ([2]; 10, 40 mg/kg i.p. daily, 80 mg/kg i.p. 3/5 days) of the same molecule?
Answer: significantly impaired in a dose-dependent fashion

Question: And the “LC3II/LC3I ratio in tumor lysates compared to control” value ([2]; after 14 days, all Lys05 doses including 10 mg/kg)?
Answer: significant increase

Question: And the “tumor growth curves compared to control” value ([2]; all 3 doses of Lys05)?
Answer: significant tumor growth impairment

Question: And the Lysotracker-positive puncta ([3]; 10 μM)?
Answer: fewer Lysotracker-positive puncta

Question: And the Lysotracker-positive puncta ([3]; 100 μM)?
Answer: fewer Lysotracker-positive puncta

Question: And the “acid-dependent processing of immature cathepsin D to the mature activated form within the lysosome” value (cathepsin D [4])?
Answer: decreased acid-dependent processing

Question: And the “LC3II/LC3I levels in tumors compared to control- or HCQ-treated tumors” value (c8161 xenografts; 76 mg/kg i.p. daily, 48 hours)?
Answer: Significantly higher

Question: And the “increase in the mean number of AV/cell compared to control- or HCQ-treated tumors” value (c8161 xenografts; Lys05 76 mg/kg i.p. daily, 48 hours, electron microscopy)?
Answer: > 2 fold

Question: And the “cleaved caspase 3 levels compared to HCQ- or PBS-treated tumors” value (c8161 xenografts; after 48 hours of treatment)?
Answer: elevated

Question: What about the “increase in extralysosomal acid phosphatase activity” value (acid phosphatase [5]) of the same molecule?
Answer: 1.75 fold

Question: And the “mice euthanized early for bowel obstruction” value (mice [6]; 80 mg/kg i.p. 3/5 days)?
Answer: 2/8

Question: What about the “bowel thickening and obstruction” value (mice [6]; mouse, in vivo) of the same molecule?
Answer: limited to 80 mg/kg dose cohort

Question: And the LC3II/LC3I ratio (c8161 cells [7])?
Answer: equivalent dose-dependent increases

Question: And the “autophagy cargo protein p62” value (c8161 cells [7])?
Answer: accumulation

Question: What about the “increased acid-dependent processing of cathepsin D within the whole cell homogenate” value (cathepsin D [8]) of the same molecule?
Answer: not observed

Question: And the “tumor growth (growth curves) compared to controls” value (1205Lu xenografts; Lys05 76 mg/kg i.p. 3/5 days, 14 days)?
Answer: significantly impaired

Question: And the “reduction in the average daily tumor growth rate compared to vehicle treated controls” value (1205Lu xenografts; Lys05 76 mg/kg i.p. 3/5 days, p=0.002)?
Answer: 53%

Question: And the “average daily tumor growth rate” value (1205Lu xenografts; Lys05 76 mg/kg i.p. 3/5 days, vehicle 31.2)?
Answer: 14.6 mm^3/day

Question: And the tumor necrosis (1205Lu xenografts; center of tumors, after 14 days)?
Answer: Extensive tumor necrosis

Question: What about the “increase in AV/cell compared to control treated tumors” value (1205Lu xenografts; end of 14 days of treatment, HCQ 60 mg/kg, Lys05 76 mg/kg i.p. 3/5 days) of the same molecule?
Answer: 6 fold

Question: What about the “IC50 values in the MTT assay” value (c8161 cells [9]) of the same molecule?
Answer: identical

Question: What about the mortality (mice [10]; daily i.p. for 48 hours, HCQ 60 mg/kg, Lys05 76 mg/kg) of the same molecule?
Answer: no mice died

Question: What about the clinical signs (mice [10]; mouse, in vivo, ip, 76 mg/kg) of the same molecule?
Answer: arched backs and lethargy

Question: And the “acidic vesicles (acridine orange)” value ([11]; 10 μM)?
Answer: accumulation of acidic vesicles

Question: And the “acidic vesicles (acridine orange)” value ([11]; 50 μM)?
Answer: no acidic vesicles were observed

Question: What about the clinical signs (mice [12]) of the same molecule?
Answer: lethargic with arched backs

Question: What about the “histology of the ileum: Paneth cells” value (mice [12]) of the same molecule?
Answer: dysmorphic Paneth cells

Question: What about the “reduction in acid phosphatase activity in the lysosomal fraction versus PBS treated cells” value (acid phosphatase [13]) of the same molecule?
Answer: 43%

Question: For `CN(CCNc1ccnc2cc(Cl)ccc12)CCNc1ccnc2cc(Cl)ccc12` [Lys01], which cell death (1205Lu) is on record?
Answer: Near complete cell death

Question: And the “cell death of cultured cells” value [14]?
Answer: Near complete cell death

Question: What about the IC50 [15] of the same molecule?
Answer: 4 to 8 µM

Question: And the LC3II/LC3I ratio (c8161 cells [7])?
Answer: equivalent dose-dependent increases

Question: What about the “autophagy cargo protein p62” value (c8161 cells [7]) of the same molecule?
Answer: accumulation

Question: And the cell death (HCC827)?
Answer: Near complete cell death

Question: And the “IC50 values in the MTT assay” value (c8161 cells [9])?
Answer: identical

Question: And the GFP-LC3 punctate fluorescence (LN229 GFP-LC3 cells [16]; 1 μM)?
Answer: numerous small puncta

Question: And the “increase in GFP-LC3 puncta per cell, 10 μM Lys01 compared to 10 μM HCQ” value (LN229 GFP-LC3 cells [16]; 10 μM, 4 hours)?
Answer: 5 fold

Question: What about the GFP-LC3 punctate fluorescence (LN229 GFP-LC3 cells [16]; 10 μM) of the same molecule?
Answer: dense puncta

Question: What about the cell death (LN229 GFP-LC3 cells [16]; 100 μM) of the same molecule?
Answer: dead by 4 hours

Question: And the “average number of vesicles per cell” value (LN229 GFP-LC3 cells [16]; Lys01 10 μM versus 100 μM HCQ)?
Answer: higher than in cells treated with 100 μM HCQ

Question: And the “IC50, activity compared to artesunate” value (P. falciparum)?
Answer: more active than artesunate

Question: What about the “potency as autophagy inhibitor relative to HCQ or CQ (LC3 immunoblotting)” value [17] of the same molecule?
Answer: > 10 fold
